Measurements: patent US20240368104A1, “Novel Dialkoxynaphtho[2,3-C]Furan-1(3H)-One Derivatives and Pharmaceutical Composition For Preventing or Treating Respiratory Disease or SARS-COV-2 Infection Disease, Comprising Same” (priority 2021, published 2024)
pIC50: −log10 of the molar value. Where two headings read alike, the source gives them in different places.

Assays:
in vitro = details: African green monkey
SARS-COV-2 = assay: microbe, parasite or virus in culture; assay type: cell-based; parameters: SI (Selectivity Index, CC50/IC50): unit not given here; details: for SI (Selectivity Index, CC50/IC50): SARS-COV-2, values >50 assumed to be 50; for pIC50: read-out: SARS-COV-2 inhibition (IC50)
[1] = Severe acute respiratory syndrome coronavirus 2, Vero cells, 24 hours infection
[2] = Severe acute respiratory syndrome coronavirus 2, Vero, 24 h

In the case of `COc1cc2cc3c(c(-c4cnc(OCCN5C[C@@H](C)O[C@@H](C)C5)nc4)c2cc1OC)C(=O)OC3` [Example 54, 9-(2-(2-((2S,6R)-2,6-dimethylmorpholino)ethoxy)pyrimidin-5-yl)-6,7-dimethoxynaphtho[2,3-c]furan-1(3H)-one], the CC50 (in vitro) was greater than 50 µM, the “SI (Selectivity Index, CC50/IC50)” value (SARS-COV-2) was 1.00 and the pIC50 (SARS-COV-2; [1]) was less than 4.30.

In the case of `COc1cc2cc3c(c(-c4cnc(N[C@@H](C)c5ccc(F)cc5)nc4)c2cc1OC)C(=O)OC3` [Example 55, (S)-9-(2-((1-(4-fluorophenyl)ethyl)amino)pyrimidin-5-yl)-6,7-dimethoxynaphtho[2,3-c]furan-1(3H)-one], the CC50 (in vitro) was greater than 50 µM, the “SI (Selectivity Index, CC50/IC50)” value (SARS-COV-2) was 4.23 and the pIC50 (SARS-COV-2; [1]) was 4.93.

In the case of `COc1cc2cc3c(c(-c4cnc(N5CC(C)CC(C)C5)nc4)c2cc1OC)C(=O)OC3` (centres unmarked) [Example 57, 9-(2-(3,5-dimethylpiperidin-1-yl)pyrimidin-5-yl)-6,7-dimethoxynaphtho[2,3-c]furan-1(3H)-one], the CC50 (in vitro) was greater than 50 µM, the “SI (Selectivity Index, CC50/IC50)” value (SARS-COV-2) was 12.07 and the pIC50 (SARS-COV-2; [1]) was 5.38.

For `CCN(CC)CCNc1ncc(-c2c3c(cc4cc(OC)c(OC)cc24)COC3=O)cn1` [Example 58, 9-(2-((2-(diethylamino)ethyl)amino)pyrimidin-5-yl)-6,7-dimethoxynaphtho[2,3-c]furan-1(3H)-one], the CC50 (in vitro) was greater than 50 µM, the “SI (Selectivity Index, CC50/IC50)” value (SARS-COV-2) was 1.66 and the pIC50 (SARS-COV-2; [1]) was 4.52.

In the case of `COc1cc2cc3c(c(-c4cnc(N5CCCC(C(=O)O)C5)nc4)c2cc1OC)C(=O)OC3` (centres unmarked) [Example 60, 1-(5-(6,7-dimethoxy-3-oxo-1,3-dihydronaphtho[2,3-c]furan-4-yl)pyrimidin-2-yl) piperidin-3-carboxylic acid], the CC50 (in vitro) was greater than 50 µM, the “SI (Selectivity Index, CC50/IC50)” value (SARS-COV-2) was 1.00 and the pIC50 (SARS-COV-2; [1]) was less than 4.30.

In the case of `COc1cc2cc3c(c(-c4cnc(N5CCC[C@H]5C(=O)O)nc4)c2cc1OC)C(=O)OC3` [Example 61, (5-(6,7-dimethoxy-3-oxo-1,3-dihydronaphtho[2,3-c]furan-4-yl)pyrimidin-2-yl)-L-proline], the CC50 (in vitro) was greater than 50 µM, the “SI (Selectivity Index, CC50/IC50)” value (SARS-COV-2) was 1.00 and the pIC50 (SARS-COV-2; [1]) was less than 4.30.

With `COc1cc2cc3c(c(-c4cnc(N5C[C@H](C)O[C@@H](C)C5)nc4)c2cc1OC)C(=O)OC3` [Example 62, 9-(2-((2S,6S)-2,6-dimethylmorpholino)pyrimidin-5-yl)-6,7-dimethoxynaphtho[2,3-c]furan-1(3H)] the CC50 (in vitro) was greater than 50 µM, the “SI (Selectivity Index, CC50/IC50)” value (SARS-COV-2) was 1.00 and the pIC50 (SARS-COV-2; [1]) was less than 4.30.

With `CCC(C)CNc1ncc(-c2c3c(cc4cc(OC)c(OC)cc24)COC3=O)cn1` (centres unmarked) [Example 64, 6,7-dimethoxy-9-(2-((2-methylbutyl)amino)pyrimidin-5-yl)naphtho[2,3-c]furan-1(3H)-one] the CC50 (in vitro) was greater than 50 µM, the “SI (Selectivity Index, CC50/IC50)” value (SARS-COV-2) was 1.00 and the pIC50 (SARS-COV-2; [1]) was less than 4.30.

For `CCCCN(CC)c1ncc(-c2c3c(cc4cc(OC)c(OC)cc24)COC3=O)cn1` [Example 66, 9-(2-(butyl(ethyl)amino)pyrimidin-5-yl)-6,7-dimethoxynaphtho[2,3-c]furan-1(3H)-one], the CC50 (in vitro) was greater than 50 µM, the “SI (Selectivity Index, CC50/IC50)” value (SARS-COV-2) was 19.03 and the pIC50 (SARS-COV-2; [1]) was 5.58.

With `COc1cc2cc3c(c(-c4cnc(NCC5CC5)nc4)c2cc1OC)C(=O)OC3` [Example 67, 9-(2-((cyclopropylmethyl)amino)pyrimidin-5-yl)-6,7-dimethoxynaphtho[2,3-c]furan-1(3H)-one] the CC50 (in vitro) was greater than 50 µM, the “SI (Selectivity Index, CC50/IC50)” value (SARS-COV-2) was 2.72 and the pIC50 (SARS-COV-2; [1]) was 4.74.

In the case of `COc1cc2cc3c(c(-c4cnc(N(C)CC5CC5)nc4)c2cc1OC)C(=O)OC3` [Example 68, 9-(2-((cyclopropylmethyl)(methyl)amino)pyrimidin-5-yl)-6,7-dimethoxynaphtho[2,3-c]furan-1(3H)-one], the CC50 (in vitro) was greater than 50 µM, the “SI (Selectivity Index, CC50/IC50)” value (SARS-COV-2) was 270.89 and the pIC50 (SARS-COV-2; [1]) was 6.74.

In the case of `COc1cc2cc3c(c(-c4cnc(NC5CC5)nc4)c2cc1OC)C(=O)OC3` [Example 69, 9-(2-(cyclopropylamino)pyrimidin-5-yl)-6,7-dimethoxynaphtho[2,3-c]furan-1(3H)-one], the CC50 (in vitro) was greater than 50 µM, the “SI (Selectivity Index, CC50/IC50)” value (SARS-COV-2) was 1.00 and the pIC50 (SARS-COV-2; [1]) was less than 4.30.

In the case of `COc1cc2cc3c(c(-c4cnc(N(C)C5CC5)nc4)c2cc1OC)C(=O)OC3` [Example 70, 9-(2-(cyclopropyl(methyl)amino)pyrimidin-5-yl)-6,7-dimethoxynaphtho[2,3-c]furan-1(3H)-one], the CC50 (in vitro) was greater than 50 µM, the “SI (Selectivity Index, CC50/IC50)” value (SARS-COV-2) was 92.84 and the pIC50 (SARS-COV-2; [1]) was 6.27.

With `CCCCN(C)c1ncc(-c2c3c(cc4cc(OC)c(OC)cc24)COC3=O)cn1` [Example 71, 9-(2-(butyl(methyl)amino)pyrimidin-5-yl)-6,7-dimethoxynaphtho[2,3-c]furan-1(3H)-one] the CC50 (in vitro) was greater than 50 µM, the “SI (Selectivity Index, CC50/IC50)” value (SARS-COV-2) was 234.36 and the pIC50 (SARS-COV-2; [2]) was 6.68.

With `COCCN(CCOC)c1ncc(-c2c3c(cc4cc(OC)c(OC)cc24)COC3=O)cn1` [Example 72, 9-(2-(bis(2-methoxyethyl)amino)pyrimidin-5-yl)-6,7-dimethoxynaphtho[2,3-c]furan-1(3H)-one] the CC50 (in vitro) was greater than 50 µM, the “SI (Selectivity Index, CC50/IC50)” value (SARS-COV-2) was 1.64 and the pIC50 (SARS-COV-2; [1]) was 4.52.

In the case of `CCN(CC)c1ncc(-c2c3c(cc4cc(OC)c(OC)cc24)COC3=O)cn1` [Example 74, 9-(2-(diethylamino)pyrimidin-5-yl)-6,7-dimethoxynaphtho[2,3-c]furan-1(3H)-one], the CC50 (in vitro) was greater than 50 µM, the “SI (Selectivity Index, CC50/IC50)” value (SARS-COV-2) was 98.94 and the pIC50 (SARS-COV-2; [1]) was 6.29.

For `CCN(c1ncc(-c2c3c(cc4cc(OC)c(OC)cc24)COC3=O)cn1)C(C)C.Cl` [Example 75, 9-(2-(ethyl(isopropyl)amino)pyrimidin-5-yl)-6,7-dimethoxynaphtho[2,3-c]furan-1(3H)-one hydrochloride], the CC50 (in vitro) was greater than 50 µM, the “SI (Selectivity Index, CC50/IC50)” value (SARS-COV-2) was 60.56 and the pIC50 (SARS-COV-2; [2]) was 6.08.

In the case of `CCCN(CCO)c1ncc(-c2c3c(cc4cc(OC)c(OC)cc24)COC3=O)cn1.Cl` [Example 77, 9-(2-((2-hydroxyethyl)(propyl)amino)pyrimidin-5-yl)-6,7-dimethoxynaphtho[2,3-c]furan-1(3H)-one hydrochloride], the CC50 (in vitro) was greater than 50 µM, the “SI (Selectivity Index, CC50/IC50)” value (SARS-COV-2) was 1.58 and the pIC50 (SARS-COV-2; [2]) was 4.50.

With `CCN(c1ncc(-c2c3c(cc4cc(OC)c(OC)cc24)COC3=O)cn1)C1CCCCC1.Cl` [Example 78, 9-(2-(cyclohexyl(ethyl)amino)pyrimidin-5-yl)-6,7-dimethoxynaphtho[2,3-c]furan-1(3H)-one hydrochloride] the CC50 (in vitro) was greater than 50 µM, the “SI (Selectivity Index, CC50/IC50)” value (SARS-COV-2) was 18.80 and the pIC50 (SARS-COV-2; [2]) was 5.58.

In the case of `COc1cc2cc3c(c(-c4cnc(N(C)C5CCCCC5)nc4)c2cc1OC)C(=O)OC3.Cl` [Example 79, 9-(2-(cyclohexyl(methyl)amino)pyrimidin-5-yl)-6,7-dimethoxynaphtho[2,3-c]furan-1(3H)-one hydrochloride], the CC50 (in vitro) was greater than 50 µM, the “SI (Selectivity Index, CC50/IC50)” value (SARS-COV-2) was 46.19 and the pIC50 (SARS-COV-2; [2]) was 5.97.

In the case of `COc1cc2cc3c(c(-c4cnc(N5CCCC(O)C5)nc4)c2cc1OC)C(=O)OC3.Cl` (centres unmarked) [Example 80, 9-(2-(3-hydroxyperidin-1-ylpyrimidin-5-yl)-6,7-dimethoxynaphtho[2,3-c]furan-1(3H)-one hydrochloride], the CC50 (in vitro) was greater than 50 µM and the pIC50 (SARS-COV-2; [2]) was 4.92.

In the case of `CCN(CCO)c1ncc(-c2c3c(cc4cc(OC)c(OC)cc24)COC3=O)cn1.Cl` [Example 81, 9-(2-(ethyl(2-hydroxyethyl)amino)pyrimidin-5-yl)-6,7-dimethoxynaphtho[2,3-c]furan-1(3H)-one hydrochloride], the CC50 (in vitro) was greater than 50 µM, the “SI (Selectivity Index, CC50/IC50)” value (SARS-COV-2) was 2.43 and the pIC50 (SARS-COV-2; [2]) was 4.69.
